According to patent publication US8895610B1, “Platinum (IV) compounds targeting zinc finger domains” (priority 2007, dated 2014):
“And” between values parts separate entries of the source, which are not always exact repeats. Equal entries are not always repeated.

Key:
FIV Petaluma = experiment: p25 antigen evaluation of antiviral activity in MBM cells; type: cell-based, feline; conditions: for p25 Viral Antigen (OD), average / p25 Viral Antigen (OD), individual wells: 7 days post infection, K+ = 1.195, K− = 0.08
Description: Antiviral activity in MBM was determined by inoculating 200 Tissue Culture Infectious Doses 50% FIV Petaluma (Talbott, 1989) in 100 μL RPMI 1640 medium into quadruplicate wells of 96-well microplates containing 2×10^5 cells in 100 μL medium. The cultures were monitored by measuring FIV p25 capsid protein (Lombardi, 1994) release in the supernatants after 7 days of incubation at 37° C. in 5% CO2 (Table 12). Half the media (without drug) was replaced on days 2 and 6 after infection and initial drug exposure. […] Drugs are identified as: CPA-7 (#1); NAD (#2); cisplatin (#3) and FX101 (#4). […]. […] A minimum of 50% inhibition in vitro is required to offset viral infectivity and replication in vivo.

STAT3 = STAT3 (Homo sapiens, UniProt P40763); conditions: have been shown; cited from earlier work
Sequence of STAT3 (P40763 whole entry, species assumed): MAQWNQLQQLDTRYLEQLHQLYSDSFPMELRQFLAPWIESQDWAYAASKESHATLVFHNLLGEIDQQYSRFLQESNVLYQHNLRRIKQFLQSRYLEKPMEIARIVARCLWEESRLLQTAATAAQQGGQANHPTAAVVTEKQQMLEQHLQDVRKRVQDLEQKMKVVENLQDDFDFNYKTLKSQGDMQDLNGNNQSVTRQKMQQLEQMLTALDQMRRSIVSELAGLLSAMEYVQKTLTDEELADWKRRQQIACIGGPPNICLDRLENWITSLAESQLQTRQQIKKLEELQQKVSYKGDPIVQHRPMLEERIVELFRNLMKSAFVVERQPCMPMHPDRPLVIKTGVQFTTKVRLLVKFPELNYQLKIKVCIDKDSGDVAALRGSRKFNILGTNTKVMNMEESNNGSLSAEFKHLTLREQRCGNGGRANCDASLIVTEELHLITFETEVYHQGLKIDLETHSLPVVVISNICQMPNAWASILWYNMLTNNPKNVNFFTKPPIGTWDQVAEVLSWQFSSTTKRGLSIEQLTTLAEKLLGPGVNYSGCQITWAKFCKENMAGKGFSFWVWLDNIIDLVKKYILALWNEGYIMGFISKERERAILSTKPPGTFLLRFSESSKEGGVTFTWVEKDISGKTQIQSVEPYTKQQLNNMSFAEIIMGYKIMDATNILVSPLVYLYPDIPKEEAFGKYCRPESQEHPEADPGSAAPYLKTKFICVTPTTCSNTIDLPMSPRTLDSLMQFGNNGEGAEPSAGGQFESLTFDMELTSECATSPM

SMILES: [NH2][Pt]([NH2])([Cl])([Cl])([Cl])[N+](=O)[O-] [Drug #1]
- inhibition (elimination of all measures of virus) by day 7 (FIV Petaluma; 7 days, concentrations used 5 and 20 μM): < 30%
- p25 Viral Antigen (OD), average (FIV Petaluma; conc 5 μM): 1.0943 OD
- p25 Viral Antigen (OD), individual wells (FIV Petaluma; conc 5 μM): 1.093 OD and 1.122 OD and 1.068 OD
- p25 Viral Antigen (OD), average (FIV Petaluma; conc 20 μM): 0.8163 OD
- p25 Viral Antigen (OD), individual wells (FIV Petaluma; conc 20 μM): 0.788 OD and 0.825 OD and 0.836 OD
- antiviral effectiveness (in words) (FIV Petaluma; p25 release, MBM cells, 7 days): insignificantly effective
- inhibition of STAT3 (STAT3): inhibit STAT3

SMILES: N.N.[Cl][Pt][Cl] [Drug #3, cisplatin]
- p25 Viral Antigen (OD), average (FIV Petaluma; conc 5 μM): 1.0157 OD
- p25 Viral Antigen (OD), individual wells (FIV Petaluma; conc 5 μM): 1.04 OD and 1.021 OD and 0.986 OD
- p25 Viral Antigen (OD), average (FIV Petaluma; conc 20 μM): 1.0133 OD
- p25 Viral Antigen (OD), individual wells (FIV Petaluma; conc 20 μM): 1.014 OD and 1.033 OD and 0.993 OD
